Data on eight compounds can be found in patent US6399647B2, “Amide derivatives for antiangiogenic and/or antitumorigenic use” (Vanderbilt University, priority 1999, dated 2002).

The test system of experiment [1] is HCA-7 (human colon adenocarcinoma, colony 29) cells. Put plainly: Human tumor xenograft assay in nude mice. In kind it is in vivo. The note with it: HCA-7, 5 mg/kg intraperitoneally 3 times per week. The procedure:
Tumor volume was determined by external measurement with an electronic caliper.

For a further experiment, the target named is T1, ovine COX-1 (Ovis aries, UniProt P05979).
T1 construct: COX-1 was purified from ram seminal vesicles obtained from Oxford Biomedical Research, Inc; tissue Oxford Biomedical Research, Inc. (Oxford, Michigan) (supplier of the tissue); host or cells: ram seminal vesicles
T1 sequence (P05979 25-600): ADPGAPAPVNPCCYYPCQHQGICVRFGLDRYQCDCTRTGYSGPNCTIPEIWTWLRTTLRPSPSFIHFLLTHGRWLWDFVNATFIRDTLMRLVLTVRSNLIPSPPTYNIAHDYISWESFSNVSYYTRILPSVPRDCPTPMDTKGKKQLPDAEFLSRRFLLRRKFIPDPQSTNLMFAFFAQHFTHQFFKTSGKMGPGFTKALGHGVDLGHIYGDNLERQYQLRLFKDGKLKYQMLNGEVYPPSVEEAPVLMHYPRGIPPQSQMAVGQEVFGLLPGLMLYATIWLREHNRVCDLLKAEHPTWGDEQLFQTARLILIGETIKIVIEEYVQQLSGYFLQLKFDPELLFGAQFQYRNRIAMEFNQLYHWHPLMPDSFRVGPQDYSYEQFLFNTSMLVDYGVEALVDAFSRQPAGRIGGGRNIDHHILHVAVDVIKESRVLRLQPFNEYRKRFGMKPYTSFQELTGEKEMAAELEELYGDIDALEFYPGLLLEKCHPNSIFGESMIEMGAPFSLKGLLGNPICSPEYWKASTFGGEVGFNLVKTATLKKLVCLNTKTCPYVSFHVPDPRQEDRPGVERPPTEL
Put plainly: TLC assay, inhibition of purified ovine COX-1. In kind it is biochemical. The note with it: ovine COX-1 (44 nM), inhibitor 20 min, then 1-14C-AA (50 μM) at 37° C. for 30 sec, duplicate.

The subject of a further experiment is COX-1. The note with it: background b24; cited from earlier work.
The subject of another experiment is tumors. The note with it: background b24; cited from earlier work.
Experiment [2] has as its target T2, COX-2 (Homo sapiens, UniProt P35354).
T2 sequence (P35354 18-604): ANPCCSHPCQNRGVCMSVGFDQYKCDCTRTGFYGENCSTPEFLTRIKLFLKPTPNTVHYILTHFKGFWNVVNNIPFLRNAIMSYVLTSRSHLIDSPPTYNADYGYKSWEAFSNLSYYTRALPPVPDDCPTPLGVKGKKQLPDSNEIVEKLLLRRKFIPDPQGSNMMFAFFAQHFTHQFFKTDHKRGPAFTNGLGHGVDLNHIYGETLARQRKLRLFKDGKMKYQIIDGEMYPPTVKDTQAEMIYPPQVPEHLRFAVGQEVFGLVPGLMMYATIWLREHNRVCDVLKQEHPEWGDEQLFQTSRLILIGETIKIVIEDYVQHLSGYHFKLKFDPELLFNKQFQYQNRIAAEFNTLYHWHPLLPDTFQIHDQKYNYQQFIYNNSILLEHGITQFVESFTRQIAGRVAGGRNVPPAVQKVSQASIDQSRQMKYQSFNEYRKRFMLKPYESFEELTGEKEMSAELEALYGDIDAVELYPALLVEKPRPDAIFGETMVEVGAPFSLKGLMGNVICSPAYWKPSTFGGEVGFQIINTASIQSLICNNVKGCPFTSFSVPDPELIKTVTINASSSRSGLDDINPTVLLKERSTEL
The settings on record: background b24; cited from earlier work.

Experiment [3] relates to carrageenan-induced rat foot pad edema. As to the kind of experiment: Rat foot pad edema model (carrageenan). In kind it is in vivo. The note with it: 2 mg/kg orally.
Description: Rats were injected with carrageenan, which triggers a rapid edema (swelling) within 3 hours that can be quantitatively measured by volume displacement.
In these experiments, the carrageenan that was injected was in 0.1 mL of aqueous saline so that 0.1 mL volume increase was due to the injection alone.
More specifically, male Sprague-Dawley rats (150 g) received a subplantar injection of carrageenan (0.1 mL of a 1% suspension of carrageenan in sterile aqueous saline) into the right hind footpad while mildly anesthetized with methoxyflurane. […] The ipsilateral footpad volume (mL) was measured with a water displacement plethysmometer at time=3 hours post-injection and compared to the time=0 pre-injection paw volume for edema calculations.
For experiment [4], the target named is T2, COX-2. As to the kind of experiment: TLC assay, inhibition of purified human COX-2. In kind it is biochemical. Further details: made in house; host or cells: insect cells (baculovirus vectors).

Broadly, the IC50 is the point on the concentration scale where inhibition reaches its midpoint. Read a low IC50 as inhibition by little substance.

Like-named read-outs stand apart in the source and are kept apart here.

Take “Indomethacin-N-(2-phenethyl) amide [Compound 11]”: the “tumor growth (in words)” value in experiment [1] was “significantly inhibited tumor growth”. The “tumor vol. cm^3” value in experiment [1] (day of explant 22) is given as 0.10 cm^3; in experiment [1] (day of explant 25) it was 0.11 cm^3; in experiment [1] (day of explant 27) it was 0.13 cm^3; in experiment [1] (day of explant 29) it was 0.14 cm^3; in experiment [1] (day of explant 31), 0.17 cm^3.

Take `COc1ccc2c(c1)c(CC(=O)N(C)CCc1ccccc1)c(C)n2C(=O)c1ccc(Cl)cc1` [Compound 9, lndomethacin-N-methylphenethyl amide]: the IC50 against ovine COX-1 was more than 66 µM.

`CC1=C(CC(=O)O)c2cc(F)ccc2/C1=C\c1ccc(S(C)(=O)=O)cc1` [sulindac sulfone]: in the experiment on COX-1, the “COX-1 inhibition (in words)” value is “does not inhibit”. In addition, in the experiment with tumors, the “inhibition of tumors (in words)” value is “exhibits inhibition of tumors”. At COX-2 [2], the “COX-2 inhibition (in words)” value is reported as “does not inhibit”.

As for `COc1ccc2c(c1)c(CC(=O)Nc1ccc(NC(C)=O)cc1)c(C)n2C(=O)c1ccc(Cl)cc1` [Compound 14, Indomethacin-N-(4-acetamidophenyl) amide], the “effect on swelling / inflammation (in words)” value in experiment [3] is listed as “dramatic decrease in swelling”.

As for `CSc1ccc(/C=C2/C(C)=C(CC(=O)O)c3cc(F)ccc32)cc1` [sulindac sulfide], the “more potent inhibitor against COX-1 than COX-2” value in the experiment on COX-1 is 40 fold. For the same compound, the “inhibition of tumors (in words)” value with tumors is on record as “exhibits inhibition of tumors”.

Take `COc1ccc2c(c1)c(CC(=O)Nc1cccnc1)c(C)n2C(=O)c1ccc(Cl)cc1` [Compound 20, Indomethacin-N-(3-pyridyl) amide]: the “COX-2 inhibition (in words)” value at COX-2 [4] was “potent and selective COX-2 inhibition”.

Regarding `COc1ccc2c(c1)c(CC(=O)O)c(C)n2C(=O)c1ccc(Cl)cc1` [Indomethacin, indomethacin, reference compound], in experiment [3], the “effect on swelling / inflammation (in words)” value was “comparable reduction in inflammation”.

Compound “Indomethacin-N-2-(2-L-methoxycarbonylethyl) amide [Compound 25]” displayed an IC50 at COX-2 [4] (human COX-2 (66 nM), inhibitor 20 min, then 1-14C-AA (50 μM) at 37° C. for 30 sec, duplicate) of 0.4 µM.
